We go through seven compounds from patent US20240366723A1, “COMBINATION THERAPY FOR THE TREATMENT OF ENTERIC NEUROPATHIES” (TRANSFERT PLUS, LIMITED PARTNERSHIP, priority 2021, published 2024).

Assay [1] relates to Homozygous Holstein^Tg/Tg mice. Kind of assay: Survival of Hol^Tg/Tg mice after enema treatment (model of Trisomy 21 [Collagen VI]-associated HSCR). Format: in vivo, mouse. The procedure: Mice. Homozygous Holstein^Tg/Tg mice (Hol^Tg/Tg; a model for Trisomy 21 [Collagen VI]-associated HSCR) were treated with either 10 μl enemas of GDNF (1 μg/μl), or 10 μl of GDNF combined with 5 mM of amino-butyrate acid (Butyrate) or other growth factors at 1 μg/μl, or vehicle (1×PBS) as control. Enemas were administered once a day from postnatal day (P) 4 until P8, and mice were monitored daily until P60 or megacolon-associated death. Survival graphs and statistical analyses were generated with GraphPad Prism software. One-way ANOVA followed by post-hoc Tukey multiple comparison test was carried out, and significance level was set at P<0.05. Number of biological replicates (n) of each cohort is indicated where relevant in Figures.
It was tested whether molecules known to have neurotrophic effects could improve the effect of GDNF on survival in a mouse model for Trisomy 21 [Collagen VI]-associated HSCR) (39).
The molecules that were tested in the present study are: Bone morphogenetic protein 4 (BMP4), Nerve growth factor (NGF), Brain-derived neurotrophic factor (BDNF), Mesencephalic Astrocyte Derived Neurotrophic Factor (MANF), Cerebral Dopamine Neurotrophic Factor (CDNF), Epidermal Growth Factor (EGF), Neurturin (NRTN), Fibroblast growth factor 2 (FGF2), butyrate and Retinoic Acid (RA).

In assay [2] the test system is mouse model for Trisomy 21 [Collagen VI]-associated HSCR. Particulars: previous study, same mouse model; Soret et al., Gastroenterology 2020, Supplementary FIG. 1G; cited from earlier work.
The conditions of assay [3]: literature reports, various models; cited from earlier work.

Entries after “also recorded” stand apart in the source; their conditions may differ.

On to `CCCC(=O)O` [butyrate], for which, in assay [1] (10 μl enema of GDNF 1 μg/μl combined with 5 mM butyrate or other growth factor at 1 μg/μl, once a day P4 until P8, monitored until P60), the “effect on survival of combination with GDNF relative to GDNF alone” value is reported as “significantly potentiate the effect of recombinant GDNF; also recorded: acts synergistically with GDNF to improve survival”. For the same compound, the “effect on mouse survival, substance alone” value in assay [1] (10 μl enema once a day P4 until P8, butyrate 5 mM, compared with vehicle (1×PBS), monitored until P60) is listed as “did not have any effect on survival; also recorded: no effect on mouse survival”.

In the case of `NCCc1c[nH]c2ccc(O)cc12` [serotonin], the “survival of mice, combination with GDNF relative to GDNF alone” value in assay [2] was “did not improve the survival of mice relative to GDNF alone”.

Consider `O=C1O[C@H]([C@@H](O)CO)C(O)=C1O` [vitamin C], for which the “survival of mice, combination with GDNF relative to GDNF alone” value in assay [2] is listed as “did not improve the survival of mice relative to GDNF alone”.

Take “CDNF: Cerebral Dopamine Neurotrophic Factor”: the Reported neurotrophic activity result in assay [3] is “CDNF is essential for enteric neuronal development”. With EGF: Epidermal Growth Factor, in assay [3], the Reported neurotrophic activity result is “EGF is chemoattractant and chemokinetic molecule for”. Turning to FGF2: Fibroblast growth factor 2, the Reported neurotrophic activity result in assay [3] was “FGF2 enhances the proliferation and differentiation of”. For the compound “endothelin 3: molecule known to have neurotrophic effects, combined with GDNF in a previous study”, the “survival of mice, combination with GDNF relative to GDNF alone” value in assay [2] was “did not improve the survival of mice relative to GDNF alone”.
